According to patent US20250154169A1, “COMPOUNDS AND METHODS FOR MODULATING SPLICING” (REMIX THERAPEUTICS INC., priority 2021, published 2025):
Where two headings read alike, the source gives them in different places.

How the values were obtained:
Assay type in all cases: cell-based, human
Target C mRNA = assay: Splicing RT-qPCR gene panel, Target C canonical junction (CJ) mRNA; settings: Homo sapiens, Tables 4A/4B, read-out: Target C (IC50, decrease in CJ mRNA, gene panel)
Outline: (§1)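 A673/K562, 24 h cpd, 11-pt 3-fold from 10 uM, DMSO ≤0.25%. Lysis, direct RT-qPCR of CJ isoform, ≥duplicate. GAPDH/GUSB/PPIA norm, ΔΔCt vs DMSO → RQ → % response.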

MYB mRNA = assay: Splicing RT-qPCR assay, MYB canonical (CJ) and alternative (AJ) junction mRNA; settings: Homo sapiens; for AC50: read-out: MYB AJ (AC50, increase in alternative junction mRNA)
Outline: (§2)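 Canonical (CJ) and alternative-exon (AJ) junction mRNAs quantified by one-step RT-qPCR in cell lysates, normalized to housekeeping PPIA for A673 and GAPDH or GUSB for K562. Cells were exposed 24 h at 37 °C to 11-point 3-fold compound series from 10 uM final, with DMSO at or below 0.25%.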

HTT mRNA [1] = assay: Splicing RT-qPCR gene panel, HTT canonical junction (CJ) mRNA; settings: Homo sapiens, Tables 4A/4B, read-out: HTT (IC50, decrease in CJ mRNA, gene panel)
Outline: as §1

HTT mRNA [2] = assay: Splicing RT-qPCR assay, HTT canonical (CJ) and alternative (AJ) junction mRNA; settings: Homo sapiens, A673 or K562 cells, 24 hours compound treatment; for IC50: 24 h, read-out: HTT CJ (IC50, decrease in canonical junction mRNA); for AC50: read-out: HTT AJ (AC50, increase in alternative junction mRNA)
Outline: as §2

SMN2 mRNA = assay: Splicing RT-qPCR gene panel, SMN2 canonical junction (CJ) mRNA; settings: Homo sapiens, Tables 4A/4B, read-out: SMN2 (IC50, decrease in CJ mRNA, gene panel)
Outline: as §1

[3] = 24 h, A673 or K562 cells, 24 hours compound treatment, RT-qPCR
[4] = 24 h, A673 or K562 cells, 24 hours compound treatment, RT-qPCR, read-out: MYB CJ (IC50, decrease in canonical junction mRNA)
[5] = Tables 4A/4B, canonical junction qPCR panel, read-out: MYB (IC50, decrease in CJ mRNA, gene panel)

Compound | IC50 (Target C mRNA) | AC50 (MYB mRNA; [3]) | IC50 (MYB mRNA; [4]) | IC50 (MYB mRNA; [5]) | IC50 (HTT mRNA [1]) | IC50 (HTT mRNA [2]) | AC50 (HTT mRNA [2]) | IC50 (SMN2 mRNA)
Cc1cn2cc(NC(=O)c3ccc(N4CC[C@H](NC5CC5)C4)c4cn(C)nc34)cc(F)c2n1 [Compound 372, 4-[(3S)-3-(cyclopropylamino)pyrrolidin-1-yl]-N-{8-fluoro-2-methylimidazo[1,2-a]pyridin-6-yl}-2-methylindazole-7-carboxamide] | > 10 µM | < 100 nM | < 100 nM | < 100 nM | > 10 µM | 1 to 10 µM | 1 to 10 µM | < 100 nM
Cc1cn2cc(NC(=O)c3ccc(N4CCC(NC5(CF)CC5)C4)c4cn(C)nc34)cc(F)c2n1 (stereo not drawn) [Compound 373, N-{8-fluoro-2-methylimidazo[1,2-a]pyridin-6-yl}-4-(3-{[1-(fluoromethyl)cyclopropyl]amino}pyrrolidin-1-yl)-2-methylindazole-7-carboxamide] | > 10 µM | < 100 nM | < 100 nM | < 100 nM | 1 to 10 µM | 1 to 10 µM | 1 to 10 µM | < 100 nM
CCn1cc2c(N3CCC(NC)C3)ccc(C(=O)Nc3cc(F)c4nc(C)cn4c3)c2n1 (stereo not drawn) [Compound 374, 2-ethyl-N-{8-fluoro-2-methylimidazo[1,2-a]pyridin-6-yl}-4-[3-(methylamino)pyrrolidin-1-yl]indazole-7-carboxamide] | > 10 µM | < 100 nM | < 100 nM | < 100 nM | > 10 µM | > 10 µM | > 10 µM | < 100 nM
CCn1cc2c(N3CCC(N(C)C)C3)ccc(C(=O)Nc3cc(F)c4nc(C)cn4c3)c2n1 (stereo not drawn) [Compound 375, 4-[3-(dimethylamino)pyrrolidin-1-yl]-2-ethyl-N-{8-fluoro-2-methylimidazo[1,2-a]pyridin-6-yl}indazole-7-carboxamide] | 0.1 to 1 µM | 100 to 1000 nM | 100 to 1000 nM | 100 to 1000 nM | 0.1 to 1 µM | 0.1 to 1 µM | 0.1 to 1 µM | < 100 nM
CCn1cc2c(N3CCC(NC4CC4)CC3)ccc(C(=O)Nc3cc(F)c4nc(C)cn4c3)c2n1 [Compound 376, 4-[4-(cyclopropylamino)piperidin-1-yl]-2-ethyl-N-{8-fluoro-2-methylimidazo[1,2-a]pyridin-6-yl}indazole-7-carboxamide] | > 10 µM | 100 to 1000 nM | 100 to 1000 nM | < 100 nM | 1 to 10 µM | 0.1 to 1 µM | 1 to 10 µM | < 100 nM
CCn1cc2c(N3C[C@@H](C)N[C@@H](C)C3)ccc(C(=O)Nc3cc(F)c4nc(C)cn4c3)c2n1 [Compound 377, 4-[(3R,5S)-3,5-dimethylpiperazin-1-yl]-2-ethyl-N-{8-fluoro-2-methylimidazo[1,2-a]pyridin-6-yl}indazole-7-carboxamide] | 1 to 10 µM | 100 to 1000 nM | 100 to 1000 nM | < 100 nM | 1 to 10 µM | 1 to 10 µM | 1 to 10 µM | < 100 nM
CCn1cc2c(N3CCN(C)CC3)ccc(C(=O)Nc3cc(F)c4nc(C)cn4c3)c2n1 [Compound 378, 2-ethyl-N-{8-fluoro-2-methylimidazo[1,2-a]pyridin-6-yl}-4-(4-methylpiperazin-1-yl) indazole-7-carboxamide] | > 10 µM | 100 to 1000 nM | 100 to 1000 nM | < 100 nM | 1 to 10 µM | 1 to 10 µM | 1 to 10 µM | < 100 nM
CCn1cc2c(N3CCNC4(CC4)C3)ccc(C(=O)Nc3cc(F)c4nc(C)cn4c3)c2n1 [Compound 379, 4-{4,7-diazaspiro[2.5]octan-7-yl}-2-ethyl-N-{8-fluoro-2-methylimidazo[1,2-a]pyridin-6-yl}indazole-7-carboxamide] | 1 to 10 µM | 1000 to 10000 nM | 100 to 1000 nM | 100 to 1000 nM | 1 to 10 µM | 1 to 10 µM | > 10 µM | < 100 nM
CCNC1CCN(c2ccc(C(=O)Nc3cc(F)c4nc(C)cn4c3)c3nn(CC)cc23)CC1 [Compound 380, 2-ethyl-4-[4-(ethylamino)piperidin-1-yl]-N-{8-fluoro-2-methylimidazo[1,2-a]pyridin-6-yl}indazole-7-carboxamide] | 1 to 10 µM | < 100 nM | < 100 nM | < 100 nM | 1 to 10 µM | 1 to 10 µM | 1 to 10 µM | < 100 nM
Cc1cn2cc(NC(=O)c3ccc(N4CC[C@@H](N)C4)c4cn(C)nc34)cc(F)c2n1 [Compound 381, 4-[(3R)-3-aminopyrrolidin-1-yl]-N-{8-fluoro-2-methylimidazo[1,2-a]pyridin-6-yl}-2-methylindazole-7-carboxamide] | > 10 µM | < 100 nM | < 100 nM | < 100 nM | > 10 µM | > 10 µM | > 10 µM | < 100 nM
Cc1cn2cc(NC(=O)c3ccc(N4CC[C@H](N)C4)c4cn(C)nc34)cc(F)c2n1 [Compound 382, 4-[(3S)-3-aminopyrrolidin-1-yl]-N-{8-fluoro-2-methylimidazo[1,2-a]pyridin-6-yl}-2-methylindazole-7-carboxamide] | > 10 µM | < 100 nM | < 100 nM | < 100 nM | 1 to 10 µM | 1 to 10 µM | 1 to 10 µM | < 100 nM
Cc1cn2cc(NC(=O)c3ccc(N4CC5(N)CC4C5)c4cn(C)nc34)cc(F)c2n1 [Compound 383, 4-{4-amino-2-azabicyclo[2.1.1]hexan-2-yl}-N-{8-fluoro-2-methylimidazo[1,2-a]pyridin-6-yl}-2-methylindazole-7-carboxamide] | > 10 µM | 100 to 1000 nM | < 100 nM | < 100 nM | > 10 µM | > 10 µM | > 10 µM | < 100 nM
Cc1cn2cc(NC(=O)c3ccc(N4CCNCC4)c4cn(CC5(O)COC5)nc34)cc(F)c2n1 [Compound 384, N-{8-fluoro-2-methylimidazo[1,2-a]pyridin-6-yl}-2-[(3-hydroxyoxetan-3-yl)methyl]-4-(piperazin-1-yl) indazole-7-carboxamide] | > 10 µM | 1000 to 10000 nM | > 10000 nM | > 10000 nM | > 10 µM | > 10 µM | > 10 µM | 100 to 1000 nM
COCCOc1nc2c(C(=O)Nc3cc(F)c4nc(C)cn4c3)ccc(N3CCNCC3)c2o1 [Compound 385, N-{8-fluoro-2-methylimidazo[1,2-a]pyridin-6-yl}-2-(2-methoxyethoxy)-7-(piperazin-1-yl)-1,3-benzoxazole-4-carboxamide] | > 10 µM | > 10000 nM | > 10000 nM | > 10000 nM | > 10 µM | > 10 µM | > 10 µM | > 10000 nM
Cn1cc2c(N3CCNCC3)ccc(C(=O)Nc3cc(F)c4nc(CO)cn4c3)c2n1 [Compound 389, N-[8-fluoro-2-(hydroxymethyl)imidazo[1,2-a]pyridin-6-yl]-2-methyl-4-(piperazin-1-yl) indazole-7-carboxamide; trifluoroacetic acid] | > 10 µM | 1000 to 10000 nM | 100 to 1000 nM | 100 to 1000 nM | > 10 µM | > 10 µM | > 10 µM | < 100 nM
